Test results: patent US9260760B2, “Method for determining complete response to anticancer therapy” (Board of Regents, The University of Texas System, priority 2012, dated 2016)

System: unresectable metastatic colorectal cancer
Assay: Study 3: maintenance XCEL after CR; RFS, PFS, OS
Assay type: in vivo, human
Source text: The institutional review board approved this study. […] All patients had clinical examinations, laboratory and CT scan every 2-3 months.
The principal investigator and two board-certified radiologists reviewed all the CT scan images. CR was defined according to the RECIST criteria as complete disappearance of measurable or none-measurable disease. Effective CR (eCR) was coined to describe normalization of an anatomical structure (e.g. nodes) that cannot regress completely. Confirmed CR included those patients who had CR by meeting the RECIST criteria or had achieved eCR or pathological CR. Near CR (nCR) were defined as almost complete disappearance (95-99%) of measurable disease on CT scan. Relapse free survival (RFS) was defined as the time from first radiologic CR to first recurrence, progression, or death. […] […] Treatment related toxicity was graded in accordance with the National Cancer Institute Common Toxicity Criteria for Adverse Events, version 3.0.
Continuous variables were summarized using the median (range) and categorical variables were summarized in frequency tables. Patients were censored at the date of last follow-up if their disease had not progressed or if they had not died. The death date was ascertained by searching (ssdi.genealogy.rootsweb.com) using social security numbers or phone follow-up. Therefore, it was possible for censored OS times to be greater than censored RFS and PFS times. Kaplan-Meier estimates for RFS, PFS, and OS were calculated, and group comparisons made using log-rank tests.

[1] = Disease-free interval prior to metastasis <6 mo
[2] = Disease-free interval prior to metastasis ≧6 mo
[3] = Response to first-line therapy no
[4] = Response to first-line therapy yes

With `Cc1ccc(-c2cc(C(F)(F)F)nn2-c2ccc(S(N)(=O)=O)cc2)cc1` [XCEL] the “pathological CR rate (observed)” value (1/19) was 5%, the “two-year RFS” value (14 unresected and R1-2 resected patients) was 71% and the “2-year RFS (95% CI)” value (All patients) was 0.57 (0.39, 0.85). For the same compound, the “3-year OS (95% CI)” value (All patients) was 0.79 (0.59, 1.00), the “2-year RFS (95% CI)” value [1] was 0.64 (0 44, 1.00) and the “3-year OS (95% CI)” value [1] was 0.75 (0.54, 1.00). For the same compound, the “2-year RFS (95% CI)” value [2] was 0.50 (0.28, 0.88), the “3-year OS (95% CI)” value [2] was 0.74 (0.39, 1.00) and the “2-year RFS (95% CI)” value (Extrahepatic no) was 0.52 (0.15, 1.00). For the same compound, the “3-year OS (95% CI)” value (Extrahepatic no) was 0.79 (0.66, 1.00), the “2-year RFS (95% CI)” value (Extrahepatic yes) was 0.50 (.20, 1.00) and the “3-year OS (95% CI)” value (Extrahepatic yes) was 0.67 (0.55, 1.00). For the same compound, the “2-year RFS (95% CI)” value (LDH Abnormal) was 0.33 (0.07, 1.00), the “3-year OS (95% CI)” value (LDH Abnormal) was 0.50 (0.13, 1.00) and the “2-year RFS (95% CI)” value (LDH Normal) was 0.62 (0.42, 0.91). The “3-year OS (95% CI)” value (LDH Normal) was 0.85 (0.68, 1.00), the “2-year RFS (95% CI)” value (Maintenance XCEL no) was 0.00 and the “3-year OS (95% CI)” value (Maintenance XCEL no) was 0.38 (0.08, 1.00). For the same compound, the “2-year RFS (95% CI)” value (Metastatic Number non-solitary) was 0.60 (0.36, 1.00), the “3-year OS (95% CI)” value (Metastatic Number non-solitary) was 0.60 (0 29, 1.00) and the “2-year RFS (95% CI)” value (Metastatic Number solitary) was 0.56 (0.31, 1.00). The “3-year OS (95% CI)” value (Metastatic Number solitary) was 0.89 (0.71, 1.00), the “2-year RFS (95% CI)” value (Metastectomy R0) was 0.20 (0.03, 1.00) and the “3-year OS (95% CI)” value (Metastectomy R0) was 0.60 (0.29, 1.00). The “2-year RFS (95% CI)” value (Metastectomy none/R1-2) was 0.71 (0.51, 0.99), the “3-year OS (95% CI)” value (Metastectomy none/R1-2) was 0.60 (0.80, 1.00) and the “3-year PFS” value (R0-2 resected patients) was 37%. The “two-year RFS” value (R0 resected patients excluding the one pathological CR patient) was 0%, the “2-year RFS (95% CI)” value (Radiation no) was 0.69 (1.40, 1.00) and the “3-year OS (95% CI)” value (Radiation no) was 0.75 (0.43, 1.00). For the same compound, the “2-year RFS (95% CI)” value (Radiation yes) was 0.50 (0.28, 0.88), the “3-year OS (95% CI)” value (Radiation yes) was 0.79 (0.56, 1.00) and the “2-year RFS (95% CI)” value [3] was 0.40 (0.25, 1.00). For the same compound, the “3-year OS (95% CI)” value [3] was 0.65 (0.49, 1.00), the “2-year RFS (95% CI)” value [4] was 0.58 (0.39, 1.00) and the “3-year OS (95% CI)” value [4] was 1.00. The “2-year RFS (95% CI)” value (Stage at Diagnosis II/III) was 0.40 (0.19, 0.85), the “3-year OS (95% CI)” value (Stage at Diagnosis II/III) was 0.77 (0.53, 1.00) and the “2-year RFS (95% CI)” value (Stage at Diagnosis IV) was 0.78 (0.55, 1.00). The “3-year OS (95% CI)” value (Stage at Diagnosis IV) was 0.83 (0.58, 1.00), the “2-year RFS (95% CI)” value (Tumor size <8 cm) was 0.62 (0.39, 1.00) and the “3-year OS (95% CI)” value (Tumor size <8 cm) was 1.00. The “2-year RFS (95% CI)” value (Tumor size ≧8 cm) was 0.40 (0.14, 1.00), the “3-year OS (95% CI)” value (Tumor size ≧8 cm) was 0.60 (0.29, 1.00) and the “Two-year RFS” value (all 19 patients) was 57%. The “median RFS” value (all 19 patients) was “not reached”, the “CEA or CA19.9 during CR” value (all patients with elevated serum CEA or CA19.9) was “normalized” and the “3-year PFS” value (confirmed CR patients) was 100%. For the same compound, the CR (eight of nine first-line irinotecan responders, XCEL alone or with radiation) was 88%, the “two-year RFS” value (five R0 resected patients) was 20% and the “estimated 3-year survival rate” value (from CR) was 79%. For the same compound, the “four year OS” value (from CR, maintenance XCEL) was 93%, the “median OS” value (from XCEL) was 51.9 months and the “estimated 3-year survival rate” value (from diagnosis) was 95%. The “median OS” value (from onset of metastasis) was 73.3 months, the “median time from CR to relapse” value (in vivo) was 13.1 months and the “relapse while on XCEL” value (maintenance XCEL) was “no patient relapsed while on XCEL”. For the same compound, the “Two-year RFS estimate” value (maintenance XCEL group) was 73%, the “3-year PFS” value (unconfirmed CR patients) was 0% and the “3 year RFS” value (whole cohorts) was 57%. For the same compound, the “Two-year RFS estimate” value (without maintenance XCEL) was 0%.
